In one experiment the target is T1, hyaluronidase (Bos taurus, UniProt Q2YDK3).
T1 sequence (Q2YDK3 36-553): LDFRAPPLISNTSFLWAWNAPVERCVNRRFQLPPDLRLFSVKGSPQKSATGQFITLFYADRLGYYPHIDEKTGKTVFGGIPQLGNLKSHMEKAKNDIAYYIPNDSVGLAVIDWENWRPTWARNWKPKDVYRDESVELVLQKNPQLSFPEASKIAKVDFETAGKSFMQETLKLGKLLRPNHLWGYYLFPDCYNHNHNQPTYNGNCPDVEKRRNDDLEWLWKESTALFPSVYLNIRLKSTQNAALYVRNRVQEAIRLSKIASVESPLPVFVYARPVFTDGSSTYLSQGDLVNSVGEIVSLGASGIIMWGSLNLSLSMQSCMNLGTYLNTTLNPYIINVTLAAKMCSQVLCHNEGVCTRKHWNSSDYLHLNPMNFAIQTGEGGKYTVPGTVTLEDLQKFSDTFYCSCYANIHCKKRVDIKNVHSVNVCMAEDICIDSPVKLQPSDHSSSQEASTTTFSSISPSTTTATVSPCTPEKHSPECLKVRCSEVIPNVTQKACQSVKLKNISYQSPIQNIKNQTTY
Kind of experiment: Anti-hyaluronidase activity (modified Morgan-Elson method). It is filed as biochemical. As to conditions: for IC50: hyaluronidase 340NF unit/ml, activating agent Compound 48/80 or CaCl2; for IC20: value marked (IC20), read-out: IC20 (printed in IC50 (mM) column); for IC10: value marked (IC10), read-out: IC10 (printed in IC50 (mM) column).

For experiment [1], the system named is passive cutaneous anaphylaxis (PCA). Kind of experiment: Anti-passive cutaneous anaphylaxis (PCA) activity in rats (Test Example 2). The class given is in vivo, Wistar strain rats. The following applies: Rattus norvegicus, N 10; for inhibition in vivo at 50 mg/kg: 50 mg/kg PO; for inhibition in vivo at 100 mg/kg: 100 mg/kg PO. Here is the method: Wistar strain rats were sensitized with ovalbumin using aluminium hydroxide gel and Bordetella Pertussis vaccine as adjuvants. Dilutions of antiserum (16-fold and 32-fold) obtained by collecting blood samples 14 days later were administered subcutaneously in the dorsal skin of the rats of the same strain at the rate of 0.1 ml per spot, and the rats were grown for 48 hours. One hour after peroral administration of the sample solution, a mixture of antigen ovalbumin and Evans-blue dye was administered to the tail venous of the animal according to the ordinary procedure. Thirty minutes later, the animals were sacrificed by exsanguination, and the areas of blue spots (long diameter×short diameter) eliciting on the portion of the antiserum injection at the dorsal skin were measured to obtain the rate of inhibition based on the average value shown by the control animals.

Experiment [2] has as its system experimental ulcer model (Shay). Kind of experiment: Anti-ulcer activity in experimental ulcer model (Shay). The class given is in vivo, Wistar strain male rats. On the procedure: Using 5 eight-week old Wistar strain male rats of 1 group, the rats were previously fasted for […]. The compound of an amount proportionate to the body weight based on the body weight after fasting was administered intraduodenally or intraperitoneally.
Each test compound was evenly suspended or dissolved in an aqueous solution of 0.5% CMC ccntaining 0.1% Tween 80, and administered at the rate of 0.5 ml per 100 g of body weight of the animal. To the controls, only the solvent was administered.
Test was carried out in accordance with Shay's method. After 48 hours' fasting, 5 animals per group were subjected to laparotomy under ether anesthesia, the tract between pylorus of stomach and duodenum was ligated, and the solution of the compound was administered intraduodenally (id) or intraperitoneally (ip), followed by suturing the laparotomy part. Eight hours after administration of the compound liquid, each animal was sacrificed by ether anesthesia and stomach was removed. Then, evaluation on the ulcer condition on the inner surface of stomach, and determination of the amount of gastric juice, of acidity by alkali titration, and of pepsin titer based on substrate of hemoglovin were made on the stored gastric juice. With regard to the acidity, gastric juice amount, and pepsin titer, the results were shown in inhibition rate (%) based on the average value of the control groups.

Where [3] appears, read: read-out: Average Inhibition Rate (%) Antiserum Dilution: × 16.
Setting [4] is: read-out: Average Inhibition Rate (%) Antiserum Dilution: × 32.

What is called IC50 is the concentration needed to halve the response being measured. Usually IC20 stands for the point of the concentration-response curve where the effect stands at 20%. What is called IC10 is the concentration at which the effect reaches the 10% level.

Molecules are shown by their SMILES. Like-named read-outs stand apart in the source and are kept apart here.

Regarding `O=C(Nc1ccccc1C(=O)O)C(=Cc1ccc(C(F)(F)F)cc1)C(=O)Nc1ccccc1C(=O)O` [Compound 35], on hyaluronidase (read-out: IC50), the IC50 was 0.015 mM.
For the compound `O=C(CC(=O)Nc1cccc(C(=O)O)c1)Nc1cccc(C(=O)O)c1` [Compound 02], the IC20 on hyaluronidase turned out to be 0.9 mM.
For `O=C(Nc1cc([N+](=O)[O-])ccc1C(=O)O)C(=Cc1ccccc1)C(=O)Nc1cc([N+](=O)[O-])ccc1C(=O)O` [Compound 16], in experiment [1] (setting [3]), the inhibition in vivo at 50 mg/kg worked out at 3.2% and the inhibition in vivo at 100 mg/kg was determined as 11.8%. Besides, in experiment [1] (setting [4]), the inhibition in vivo at 50 mg/kg is 9% and the inhibition in vivo at 100 mg/kg turned out to be 12.2%. The compound also came in with a 50% inhibitory concentration (IC50) against hyaluronidase (IC50 (mM)) of 0.01 mM.
For `O=C(Nc1ccccc1C(=O)O)C(=Cc1ccccc1Cl)C(=O)Nc1ccccc1C(=O)O` [Compound 32], the IC50 on hyaluronidase (read-out: IC50) came out at 0.025 mM.
Consider `CCOC(=O)c1ccccc1NC(=O)CC(=O)Nc1ccccc1C(=O)OCC` [Compound 04], for which, on hyaluronidase, the concentration for an effect of 10% (IC10) stood at 0.015 mM.
For `O=C(Nc1ccccc1C(=O)O)C(=Cc1cccc(Cl)c1)C(=O)Nc1ccccc1C(=O)O` [Compound 31], at hyaluronidase (read-out: IC50), the IC50 was 0.025 mM.
Turning to `O=C(CC(=O)Nc1ccccc1C(=O)O)Nc1ccccc1C(=O)O` [Compound 01, 2,2'-[(1,3-dioxo-1.3-propanediyl)diimino]bisbenzoic acid], the IC50 on hyaluronidase (read-out: IC50) came out at 0.077 mM.
On the same count and under the same terms, for `O=C(Nc1ccccc1C(=O)O)C(=Cc1ccc(F)cc1)C(=O)Nc1ccccc1C(=O)O` [Compound 34] the value was 0.025 mM.
`COc1ccc(C(=O)O)cc1NC(=O)C(=Cc1ccccc1)C(=O)Nc1cc(C(=O)O)ccc1OC` [Compound 18]: the IC10 at hyaluronidase amounted to 0.29 mM.
Consider `O=C(Nc1cc(Cl)ccc1C(=O)O)C(=Cc1ccccc1)C(=O)Nc1cc(Cl)ccc1C(=O)O` [Compound 15], for which, at hyaluronidase (read-out: IC50), the IC50 stood at 0.055 mM.
Turning to `Cn1cccc1C=C(C(=O)Nc1ccccc1C(=O)O)C(=O)Nc1ccccc1C(=O)O` [Compound 43, 2,2'-[(1,3-dioxo-2-(1-methyl-1H-pyrrol-2-yl)methylene-1,3-propanediyl)diimino]bisbenzoic acid], the IC50 at hyaluronidase (read-out: IC50) was found to be 0.04 mM.
With `COc1cc(C=C(C(=O)Nc2ccccc2C(=O)O)C(=O)Nc2ccccc2C(=O)O)cc(OC)c1OC` [Compound 23], in experiment [2] (id 100 mg/kg), the “Inhibition % Gastric Acidity” value turned out to be 32.5%, the “Inhibition % secretion amount of gastric juice” value (“Inhibition % secretion amount” for short) is given as 8.5% and the “Inhibition % total pepsin titer” value amounted to 31.1%. Besides, in experiment [2] (id 200 mg/kg), the “Inhibition % Gastric Acidity” value was found to be 40.2%, the “Inhibition % secretion amount” value is on record as 11.2% and the “Inhibition % total pepsin titer” value was determined as 41.2%. The IC50 on hyaluronidase (read-out: IC50) amounted to 0.03 mM.
In the case of `COc1ccc(C=C(C(=O)Nc2ccccc2C(=O)O)C(=O)Nc2ccccc2C(=O)O)cc1` [Compound 19], the half-maximal inhibitory concentration (IC50) on hyaluronidase (read-out: IC50) was 0.013 mM.
Still for that read-out and setting: in the case of `O=C(Nc1ccccc1C(=O)O)C(=Cc1cccc2ccccc12)C(=O)Nc1ccccc1C(=O)O` [Compound 38] it was 0.023 mM.
For the compound `O=C(CC(=O)Nc1cc(Cl)ccc1C(=O)O)Nc1cc(Cl)ccc1C(=O)O` [Compound 05], on hyaluronidase, the IC10 was determined as 1.32 mM.
As for `O=C(Nc1ccccc1C(=O)O)C(=Cc1ccsc1)C(=O)Nc1ccccc1C(=O)O` [Compound 41, 2,2'-[(1,3-dioxo-2-(3-thienyl)methylene-1,3-propanediyl)diimino]bisbenzoicacid], the 50% inhibitory concentration (IC50) on hyaluronidase (read-out: IC50) turned out to be 0.06 mM.
Still for that read-out and setting: for `O=C(Nc1ccccc1C(=O)O)C(=Cc1ccccc1)C(=O)Nc1ccccc1C(=O)O` the value was 0.035 mM; for `O=C(Nc1ccccc1C(=O)O)C(=Cc1ccccc1)C(=O)Nc1cc(Cl)ccc1C(=O)O` [Compound 46, 4-chloro-2,2'-[(1,3-dioxo-2-phenylmethylene-1,3-propanediyl)diimimo]bisbenzoic acid], 0.03 mM.
As for `N#Cc1ccc(C=C(C(=O)Nc2ccccc2C(=O)O)C(=O)Nc2ccccc2C(=O)O)cc1` [Compound 37], the IC50 on hyaluronidase (read-out: IC50) is 0.017 mM.
Consider `O=C(Nc1ccccc1C(=O)O)C(=Cc1ccc2c(c1)OCO2)C(=O)Nc1ccccc1C(=O)O` [Compound 25], for which, in experiment [2] (id 100 mg/kg), the “Inhibition % Gastric Acidity” value is 45.2%, the “Inhibition % secretion amount” value is 25.5% and the “Inhibition % total pepsin titer” value is recorded as 32.1%. Further, in experiment [2] (id 200 mg/kg), the “Inhibition % Gastric Acidity” value turned out to be 80.0%, the “Inhibition % secretion amount” value is 50.7% and the “Inhibition % total pepsin titer” value came out at 40.5%. For the same compound, in experiment [2] (ip 50 mg/kg), the “Inhibition % Gastric Acidity” value worked out at 67.4%, the “Inhibition % secretion amount” value was 53.4% and the “Inhibition % total pepsin titer” value is 82.2%. For the same compound, the IC50 at hyaluronidase (read-out: IC50) is 0.013 mM.
Regarding `COc1ccc(C(=O)O)cc1NC(=O)CC(=O)Nc1cc(C(=O)O)ccc1OC` [Compound 08], the concentration for an effect of 10% (IC10) at hyaluronidase worked out at 0.22 mM.
Take `Cc1ccc(NC(=O)C(=Cc2ccccc2)C(=O)Nc2ccc(C)cc2C(=O)O)c(C(=O)O)c1` [Compound 17]: the 50% inhibitory concentration (IC50) at hyaluronidase (read-out: IC50) stood at 0.142 mM.
For the compound `CNC(=C[N+](=O)[O-])NCCSCc1ccc(CN(C)C)o1` [Ranitidine, reference compound], in experiment [2] (id 30 mg/kg), the “Inhibition % Gastric Acidity” value is 63.0%, the “Inhibition % secretion amount” value was found to be 25.2% and the “Inhibition % total pepsin titer” value was 20.6%.
Consider `CN(C)c1ccc(C=C(C(=O)Nc2ccccc2C(=O)O)C(=O)Nc2ccccc2C(=O)O)cc1` [Compound 28], for which, on hyaluronidase (read-out: IC50), the concentration for half-maximal inhibition (IC50) worked out at 0.11 mM.
Turning to `Cc1ccc(NC(=O)CC(=O)Nc2ccc(C)cc2C(=O)O)c(C(=O)O)c1` [Compound 07], at hyaluronidase, the IC10 turned out to be 0.66 mM and the 20% effect concentration (IC20) was 0.72 mM.
As for `O=C(Nc1ccccc1C(=O)O)C(=Cc1ccc(Br)cc1)C(=O)Nc1ccccc1C(=O)O` [Compound 33], the IC50 on hyaluronidase (read-out: IC50) turned out to be 0.015 mM.
Same read-out and setting: for `O=C(Nc1ccc(C(=O)O)cc1)C(=Cc1ccccc1)C(=O)Nc1ccc(C(=O)O)cc1` [Compound 13] the value was 0.055 mM; for `O=C(Nc1ccccc1C(=O)O)C(=Cc1ccco1)C(=O)Nc1ccccc1C(=O)O` [Compound 39], 0.04 mM; for `O=C(CC(=O)Nc1cc(Cl)ccc1C(=O)O)Nc1ccccc1C(=O)O` [Compound 09, 4-chloro-2,2'-[(1,3-dioxo-1,3propanediyl)diimino]bisbenzoic acid], 0.134 mM.
Still for that read-out and setting: in the case of `O=C(Nc1ccccc1C(=O)O)C(=Cc1cccs1)C(=O)Nc1ccccc1C(=O)O` [Compound 40, 2,2'-[[1,3-dioxo-2-{2-thienyl)methylene-1,3-propanediyl]diimino]bisbenzoicacid] it was 0.035 mM; in that of `O=C(Nc1cccc(C(=O)O)c1)C(=Cc1ccccc1)C(=O)Nc1cccc(C(=O)O)c1` [Compound 12], 0.065 mM.
Same read-out and setting: in the case of `O=C(Nc1ccccc1C(=O)O)C(=Cc1ccc([N+](=O)[O-])cc1)C(=O)Nc1ccccc1C(=O)O` [Compound 36, 2,2'-[[1,3-dioxo-2-(4-nitro)phenylmethylene-1,3-propanediyl]diimino]bisbenzoic acid] it was 0.025 mM; in that of `CC(C)c1ccc(C=C(C(=O)Nc2ccccc2C(=O)O)C(=O)Nc2ccccc2C(=O)O)cc1` [Compound 27], 0.03 mM.
For the compound `Cn1cc(C=C(C(=O)Nc2ccccc2C(=O)O)C(=O)Nc2ccccc2C(=O)O)c2ccccc21` [Compound 45], the half-inhibitory concentration (IC50) on hyaluronidase (read-out: IC50) was 0.01 mM.
Still for that read-out and setting: for `O=C(Nc1ccccc1C(=O)O)C(=Cc1cccnc1)C(=O)Nc1ccccc1C(=O)O` [Compound 44] the value was 0.073 mM.
On the same count and under the same terms, in the case of `O=C(O)c1ccccc1NC(=O)C(Cc1ccccc1)C(=O)Nc1ccccc1C(=O)O` [Compound 50, 2,2'-[(1,3-dioxo-2-phenylmethyl-1,3-propanediyl)diimino]bisbenzoic acid] it was 0.05 mM.
On the same count and under the same terms, for `O=C(Nc1ccccc1C(=O)O)C(=Cc1ccc[nH]1)C(=O)Nc1ccccc1C(=O)O` [Compound 42] the value was 0.025 mM.

Source of the values: patent publication US4822791A, “Pharmaceutical compositions of-2,2-1,1-[bis-2,2'-(3,1-benzoxazin-4-one)9 ethylenes” (priority 1984, dated 1989).
